The structures appear in SMILES notation.

For series [1], the target named is T1, Human Pregnane X Receptor (PXR) (Homo sapiens, UniProt O75469).
T1 construct: host or cells: DPX2 cells
T1 sequence (O75469 1-434): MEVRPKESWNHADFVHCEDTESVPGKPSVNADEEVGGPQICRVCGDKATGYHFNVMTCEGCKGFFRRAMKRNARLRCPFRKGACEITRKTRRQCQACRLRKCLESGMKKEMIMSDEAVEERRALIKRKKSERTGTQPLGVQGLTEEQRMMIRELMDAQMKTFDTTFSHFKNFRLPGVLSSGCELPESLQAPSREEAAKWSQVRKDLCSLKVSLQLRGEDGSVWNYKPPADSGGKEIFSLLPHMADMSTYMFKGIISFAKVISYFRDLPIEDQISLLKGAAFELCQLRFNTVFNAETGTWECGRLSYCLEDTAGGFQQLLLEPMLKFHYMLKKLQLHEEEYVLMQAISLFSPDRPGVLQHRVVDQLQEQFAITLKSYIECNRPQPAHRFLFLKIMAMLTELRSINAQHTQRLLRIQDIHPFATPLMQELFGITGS
Description: Human pregnane X receptor (PXR) assay, induction of PXR-mediated CYP3A expression in DPX2 cells. It counts as cell-based. As for the experimental part:
Experimental Embodiment 3: Human Pregnane X Receptor (PXR) Assay
The effect of the compounds on the induction of PXR-mediated CYP3A expression was evaluated.
1. DPX2 cells were thawn under sterile conditions.
2. DPX2 cell solution was distributed in 96-well plate (100 μL/well), and the plate was placed in a 5% CO2/37° C. incubator overnight.
3. Quantitative feeding medium was thawn in a 37° C. water bath. Positive control rifampin was thawn at room temperature. A series of test compounds and positive control dilutions were prepared in quantitative feeding medium. The cells were carefully aspirated from each wells without disturbing the cells during aspiration and the medium was discarded. 100 μL of each test compound concentration was transferred to pre-labeled wells. The operation of the positive control group and the blank group were the same. The plate was placed back into the incubator for 24 hours exposure.
(1) 7 μL of Luciferin-IPA was added to […] feeding medium, the mixture was mixed by inverting, and poured into a Luciferin-IPA reagent tank.
(2) The 96-well plate was taken out from the incubator, and the media was carefully aspirated from each wells. 50 μL of the Luciferin-IPA reagent was added to each wells, and the cell plate was placed back into the incubator for 60 minutes.
(3) During incubation, the P450-Glo buffer was poured into the Luciferin detection reagent, and the mixture was mixed by inverting.
(4) The 96-well plate was taken out from the incubator, and 40 μL of solution from each well was transferred into the corresponding white 96-well plate, and the corresponding position of each wells was consistent with the original cell plate. […]
(8) After incubation with Luciferin detection reagent for 20 minutes, a photometer (set 1-5 seconds. Readout Time) was used to measure the luminescence of each wells of the white 96-well plate. […]
(10) After incubating for 60 minutes at 37° C., the original 96-well plate was taken out of the incubator. The reader was set to the fluorescence mode, the excitation wavelength was set to 380-400 nm, the emission wavelength was set to 505 nm, and the fluorescence intensity of each wells was measured.
(11) The cell plate was taken out of the enzyme reader, and 100 μL of ONE-Glo™ detection reagent was added to each wells. […]
(12) The enzyme reader was set to 5 seconds for pre-shaking and 5 seconds for wells reading, and the fluorescence intensity in each hole was measured. […]
The positive control was rifampicin, six concentrations were tested in each experiment. The data was analyzed using Prism to generate a concentration-response curve and the EC50 value of the compound was calculated.

The next series addresses T2, CYP1A2 (Homo sapiens, UniProt P05177).
T2 construct: Mixed human liver microsomes (HLM) were purchased from Corning Inc; tissue Corning Inc; host or cells: pooled human liver microsomes
T2 sequence (P05177 1-516): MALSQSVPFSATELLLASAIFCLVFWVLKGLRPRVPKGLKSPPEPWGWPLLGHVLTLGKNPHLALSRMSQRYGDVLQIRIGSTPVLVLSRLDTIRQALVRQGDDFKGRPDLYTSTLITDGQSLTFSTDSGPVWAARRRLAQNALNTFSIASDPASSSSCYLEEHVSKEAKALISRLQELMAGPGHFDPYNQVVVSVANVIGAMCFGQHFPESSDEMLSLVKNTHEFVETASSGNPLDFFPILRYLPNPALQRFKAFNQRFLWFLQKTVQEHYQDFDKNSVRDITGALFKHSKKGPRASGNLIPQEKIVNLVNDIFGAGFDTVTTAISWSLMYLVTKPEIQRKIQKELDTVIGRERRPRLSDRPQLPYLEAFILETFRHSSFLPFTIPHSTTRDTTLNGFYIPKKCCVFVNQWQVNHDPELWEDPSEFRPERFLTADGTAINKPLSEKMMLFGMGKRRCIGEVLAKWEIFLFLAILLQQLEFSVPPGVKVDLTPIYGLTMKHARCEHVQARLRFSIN
Description: Human liver microsomal cytochrome P450 isozyme inhibition assay, CYP1A2. It counts as in vitro ADME. As to conditions: human liver microsomes. As for the experimental part:
(§1) Experimental Embodiment 4: Human Liver Microsomal Cytochrome P450 Isozyme Inhibition Assay The purpose of the assay was to evaluate the inhibitory activity of the samples against human liver microsomal cytochrome P450 isozyme (CYP1A2, CYP2C9, CYP2C19, CYP2D6 and CYP3A4) using the 5-in-1 probe substrate of the CYP isozyme. Mixed human liver microsomes (HLM) were purchased from Corning Inc. (Steuben, N.Y., USA) and stored below −80° C. before use. The test compound working solution which has been diluted into serial concentrations was added to an incubation system containing human liver microsomes, probe substrates and circulating system cofactors, and a control containing solvent without the test compound was used as the enzyme activity control (100%). The concentration of the metabolite produced by the probe substrate in the sample was determined using a liquid chromatography-tandem mass spectrometry (LC-MS/MS) method. Nonlinear regression analysis was performed on the average percent activity versus concentration of subjects using SigmaPlot (V.11). The IC50 value was calculated by a three-parameter or four-parameter inverse-logarithmic equation.
(In general: Microsomes from liver hold many membrane-bound enzymes, among them those of drug oxidation.)

A further series deals with T3, CYP3A4 (Homo sapiens, UniProt P08684).
T3 construct: Mixed human liver microsomes (HLM) were purchased from Corning Inc; tissue Corning Inc; host or cells: pooled human liver microsomes
T3 sequence (P08684 whole entry): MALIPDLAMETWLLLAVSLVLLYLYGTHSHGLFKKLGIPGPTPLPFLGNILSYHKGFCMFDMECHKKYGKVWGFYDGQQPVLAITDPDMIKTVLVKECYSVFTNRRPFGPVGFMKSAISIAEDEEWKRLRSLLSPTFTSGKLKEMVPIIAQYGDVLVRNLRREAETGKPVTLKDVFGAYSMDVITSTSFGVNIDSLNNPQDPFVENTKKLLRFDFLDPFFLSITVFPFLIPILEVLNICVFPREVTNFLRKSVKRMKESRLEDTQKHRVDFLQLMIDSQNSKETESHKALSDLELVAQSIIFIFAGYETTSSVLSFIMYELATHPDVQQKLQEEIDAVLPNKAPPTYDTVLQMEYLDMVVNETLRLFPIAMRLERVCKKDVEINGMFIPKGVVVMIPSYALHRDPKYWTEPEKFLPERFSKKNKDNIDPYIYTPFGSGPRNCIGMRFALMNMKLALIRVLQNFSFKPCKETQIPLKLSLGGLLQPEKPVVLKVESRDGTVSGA
Description: Human liver microsomal cytochrome P450 isozyme inhibition assay, CYP3A4. Type of series: in vitro ADME. As to conditions: human liver microsomes. As for the experimental part: as §1

The test system of series [2] is human liver microsomal cytochrome P450 isozyme (CYP1A2, CYP2C9, CYP2C19, CYP2D6 and CYP3A4). Briefly: Human liver microsomal cytochrome P450 isozyme inhibition assay, summary over the main isozymes. It counts as in vitro ADME. As for the experimental part:
as §1

Consider `COCCNS(=O)(=O)Nc1ncnc(OCCOc2ncc(Br)cn2)c1-c1ccc2c(c1)OCO2` [WX013], for which the “induction effect on PXR-mediated CYP3A expression (in words)” value in series [1] is listed as “relatively weak induction effect”. Further, the half-maximal effective concentration (EC50) (commonly the concentration that produces a half-maximal response) in series [1] (DPX2 cells, 24 hours exposure, ± is calculation error of simulation curve, read-out: EC50, induction effect on PXR-mediated CYP3A expression) is 27.6 ± 1.33 µM. Further, the IC50 (usually the concentration that gives 50% inhibition) at CYP1A2 was 47 µM; against CYP3A4, 18 µM. In series [2], the “inhibitory effects on five main isozymes of CYP (in words)” value is on record as “very weak”.
